Reference: article PMC8286840, “Identifying SARS-CoV-2 antiviral compounds by screening for small molecule inhibitors of Nsp3 papain-like protease” (Biochemical Journal, 2021)
Structures can show the parent of a compound that is named as a salt. Where two headings read alike, the source gives them in different places.

Legend:
[1] = molecular target: T1, SARS-CoV-2 PLpro (nsp3 1564–1878) (Severe acute respiratory syndrome coronavirus 2, UniProt P0DTD1); assay: biochemical; parameters: FRET-quenched peptide (Pro3) cleavage by PLpro, 10 min pre-incubation, slope over 20 min, normalised to no-compound control; conditions: low concentration screen, read-out: % of control remaining
[2] = molecular target: T1, SARS-CoV-2 PLpro (nsp3 1564–1878); assay: biochemical; parameters: FRET-quenched peptide (Pro3) cleavage by PLpro, 10 min pre-incubation, slope over 20 min, normalised to no-compound control; conditions: high concentration screen, read-out: % of control remaining

Work on `Cc1ccccc1N(C)C(=O)c1ccc([S+]([O-])c2nccs2)c([N+](=O)[O-])c1` (stereo not drawn) [SB-268262] yielded a remaining activity at 1.25 µM ([1]; Well no.=5777) of 99.5% and a remaining activity at 3.75 µM ([2]; Well no.=5777) of 100%.
Molecule `CC1CCN(CC[C@H]2CCCN2S(=O)(=O)c2cccc(O)c2)CC1` [SB-269970 (hydrochloride)] has a remaining activity at 1.25 µM ([1]; Well no.=8385) of 108% and a remaining activity at 3.75 µM ([2]; Well no.=8385) of 101%.
`Cc1nc2ccc(NC(=O)Nc3ccnc4cccnc34)cc2o1` [SB-334867 (free base)] was tested, and the remaining activity at 1.25 µM ([1]; Well no.=6999) was 101% and the remaining activity at 3.75 µM ([2]; Well no.=6999) was 104%.
`COc1cccc(NC(=O)/C=C/c2ccc(Cl)cc2)c1` [SB-366791] gave a remaining activity at 1.25 µM ([1]; Well no.=1260) of 104% and a remaining activity at 3.75 µM ([2]; Well no.=1260) of 103%.
In the case of `Cc1cc(NC(=O)Nc2ccc(N(C)C)cc2)c2cc(F)cc(F)c2n1` [SB-408124 (Hydrochloride)], the remaining activity at 1.25 µM ([1]; Well no.=6939) is reported as 99.4% and the remaining activity at 3.75 µM ([2]; Well no.=6939) is reported as 98.8%.
For `Cc1cc(NC(=O)Nc2ccc(N(C)C)cc2)c2cc(F)cc(F)c2n1` [SB-408124], the remaining activity at 1.25 µM ([1]; Well no.=4955) was 90.2%, the remaining activity at 1.25 µM ([1]; Well no.=8481) was 104% and the remaining activity at 3.75 µM ([2]; Well no.=4955) was 94.9%. For the same molecule, the remaining activity at 3.75 µM ([2]; Well no.=8481) was 102%.
For `Cc1cccc(-c2[nH]c(C(C)(C)C)nc2-c2ccc3c(c2)OCO3)n1` [SB-505124], the remaining activity at 1.25 µM ([1]; Well no.=4814) was 101% and the remaining activity at 3.75 µM ([2]; Well no.=4814) was 95.6%.
Work on `Cc1nc(C(=O)N2CCC[C@H]2Cc2nnc(-c3ccccc3)o2)c(-c2ccccc2F)s1` [SB-674042] yielded a remaining activity at 1.25 µM ([1]; Well no.=7083) of 102% and a remaining activity at 3.75 µM ([2]; Well no.=7083) of 98.9%.
`O=S(=O)(c1ccccc1)c1cnc2c(N3CCNCC3)cccc2c1` [SB-742457] gave a remaining activity at 1.25 µM ([1]; Well no.=4839) of 98.1%, a remaining activity at 1.25 µM ([1]; Well no.=7183) of 94.6% and a remaining activity at 3.75 µM ([2]; Well no.=4839) of 104%. For the same molecule, the remaining activity at 3.75 µM ([2]; Well no.=7183) was 91.3%.
`Cc1cc(/C(O)=C2\C(=O)C(=O)N(CCCN3CCOCC3)C2c2ccncc2)ccc1OCc1ccccc1` (stereo not drawn) [SBC-115076] was tested, and the remaining activity at 1.25 µM ([1]; Well no.=7844) was 101% and the remaining activity at 3.75 µM ([2]; Well no.=7844) was 95.8%.
`CNC(=O)c1ccccc1Oc1nc(Nc2cc(OC)c(OC)c(OC)c2)ncc1Br` [SBI-0206965] showed a remaining activity at 1.25 µM ([1]; Well no.=7028) of 105% and a remaining activity at 3.75 µM ([2]; Well no.=7028) of 103%.
`O=C(c1ccccc1)c1ccc2nc(NC(=O)c3csc(C4CCN(c5ncnc6ccsc56)CC4)n3)[nH]c2c1` [SC75741] gave a remaining activity at 1.25 µM ([1]; Well no.=6922) of 100% and a remaining activity at 3.75 µM ([2]; Well no.=6922) of 101%.
For `CC(=O)NNC(=O)N1Cc2ccccc2Oc2ccc(Cl)cc21` [SC 19220], the remaining activity at 1.25 µM ([1]; Well no.=1408) was 101% and the remaining activity at 3.75 µM ([2]; Well no.=1408) was 100%.
`NS(=O)(=O)c1ccc(-n2nc(C(F)(F)F)cc2-c2ccc(Cl)cc2)cc1` [SC-236] showed a remaining activity at 1.25 µM ([1]; Well no.=5773) of 110% and a remaining activity at 3.75 µM ([2]; Well no.=5773) of 98%.
For `Cc1nc(-c2ccccc2)c(-c2ccncc2)o1` [SC-68376], the remaining activity at 1.25 µM ([1]; Well no.=2650) was 96.3% and the remaining activity at 3.75 µM ([2]; Well no.=2650) was 102%.
With `CN1CCc2cc(Cl)c(O)cc2[C@@H](c2ccccc2)C1` [SCH 23390 (hydrochloride)] the remaining activity at 1.25 µM ([1]; Well no.=7813) was 109% and the remaining activity at 3.75 µM ([2]; Well no.=7813) was 102%.
Work on `Nc1nc2c(cnn2CCc2ccccc2)c2nc(-c3ccco3)nn12` [SCH 58261] yielded a remaining activity at 1.25 µM ([1]; Well no.=7907) of 95.3%, a remaining activity at 1.25 µM ([1]; Well no.=8309) of 98.9% and a remaining activity at 3.75 µM ([2]; Well no.=7907) of 99.3%. The remaining activity at 3.75 µM ([2]; Well no.=8309) was 97.1%.
For `CC[C@@H](Nc1c(Nc2cccc(C(=O)N(C)C)c2O)c(=O)c1=O)c1ccc(C)o1` [SCH 527123], the remaining activity at 1.25 µM ([1]; Well no.=7087) was 102% and the remaining activity at 3.75 µM ([2]; Well no.=7087) was 97.3%.
Molecule `CC[C@H]1CN(c2nc(N)c(C(N)=O)nc2Cl)CCN1C1CCN(Cc2ccc(Cl)cc2)CC1` [SCH 546738] has a remaining activity at 1.25 µM ([1]; Well no.=8659) of 103% and a remaining activity at 3.75 µM ([2]; Well no.=8659) of 106%.
`CN=c1nc(-c2ccccc2)n(-c2ccccc2)s1` [SCH-202676 hydrobromide] gave a remaining activity at 1.25 µM ([1]; Well no.=1314) of 98.7% and a remaining activity at 3.75 µM ([2]; Well no.=1314) of 97.4%.
For `COc1ccc(CCCn2ncc3c2nc(N)n2nc(-c4ccco4)nc32)cc1` [SCH-442416], the remaining activity at 1.25 µM ([1]; Well no.=5870) was 98.1% and the remaining activity at 3.75 µM ([2]; Well no.=5870) was 97.4%.
In the case of `NC(=O)c1ccc2[nH]ccc2c1` [SD169], the remaining activity at 1.25 µM ([1]; Well no.=2797) is reported as 106% and the remaining activity at 3.75 µM ([2]; Well no.=2797) is reported as 106%.
Molecule `Fc1ccc(Cl)cc1-c1nc(Nc2ccncc2)c2nccnc2n1` [SD 208 - 2-(5-Chloro-2-fluorophenyl)-4-[(4-pyridyl)amino]pteridine] has a remaining activity at 1.25 µM ([1]; Well no.=2680) of 97.3% and a remaining activity at 3.75 µM ([2]; Well no.=2680) of 99.7%.
Work on `O=C(CO)N1CCC(c2n[nH]c(-c3ccc(Cl)cc3)c2-c2ccncn2)CC1` [SD-06] yielded a remaining activity at 1.25 µM ([1]; Well no.=2897) of 99.5% and a remaining activity at 3.75 µM ([2]; Well no.=2897) of 97%.
`CCN(CC)CCOC(=O)c1cc(Cl)c(N)cc1OC` [SDZ-205,557 hydrochloride] gave a remaining activity at 1.25 µM ([1]; Well no.=1327) of 101% and a remaining activity at 3.75 µM ([2]; Well no.=1327) of 100%.
Work on `Cc1cc(Nc2ccc(NC(=O)c3ccc(Nc4ccnc5ccccc45)cc3)cc2)nc(N)n1` [SGI-1027] yielded a remaining activity at 1.25 µM ([1]; Well no.=5518) of 105% and a remaining activity at 3.75 µM ([2]; Well no.=5518) of 102%.
For `CN1CCC(CNc2ccc3ncc(-c4cccc(OC(F)(F)F)c4)n3n2)CC1` [SGI-1776 free base], the remaining activity at 1.25 µM ([1]; Well no.=4818) was 88.4% and the remaining activity at 3.75 µM ([2]; Well no.=4818) was 86.2%.
`Cn1cc(-c2ccc3nnc(Sc4ccc5ncccc5c4)n3n2)cn1` [SGX-523] gave a remaining activity at 1.25 µM ([1]; Well no.=4665) of 104% and a remaining activity at 3.75 µM ([2]; Well no.=4665) of 106%.
For `Cc1ccc(O)c(N=Nc2ccccc2)n1` [SIB 1757], the remaining activity at 1.25 µM ([1]; Well no.=1371) was 99.7% and the remaining activity at 3.75 µM ([2]; Well no.=1371) was 102%.
Work on `Cc1cccc(/C=C/c2ccccc2)n1` [SIB 1893] yielded a remaining activity at 1.25 µM ([1]; Well no.=1419) of 96.6% and a remaining activity at 3.75 µM ([2]; Well no.=1419) of 95.7%.
For `CCOc1cc(/C=C2/C(=O)N(c3ccccc3)N=C2C)cc(Cl)c1OCC(=O)OC` [SJ-172550], the remaining activity at 1.25 µM ([1]; Well no.=6354) was 91.1% and the remaining activity at 3.75 µM ([2]; Well no.=6354) was 90.9%.
With `CN1CCc2cc(O)c(O)cc2C(c2ccccc2)C1` (stereo not drawn) [SKF 75670 hydrobromide] the remaining activity at 1.25 µM ([1]; Well no.=1360) was 103% and the remaining activity at 3.75 µM ([2]; Well no.=1360) was 105%.
`CN1CCc2c(cc(O)c(O)c2Cl)C(c2cccc(Cl)c2)C1` (stereo not drawn) [SKF 83565 hydrobromide] was tested, and the remaining activity at 1.25 µM ([1]; Well no.=1504) was 94.9% and the remaining activity at 3.75 µM ([2]; Well no.=1504) was 97.3%.
For `Cc1cccc(C2CN(C)CCc3c2cc(O)c(O)c3Cl)c1` (stereo not drawn) [SKF 83959 hydrobromide], the remaining activity at 1.25 µM ([1]; Well no.=1264) was 106% and the remaining activity at 3.75 µM ([2]; Well no.=1264) was 108%.
`CN1CCc2cccc(Cl)c2CC1` [SKF 86466] showed a remaining activity at 1.25 µM ([1]; Well no.=1214) of 101% and a remaining activity at 3.75 µM ([2]; Well no.=1214) of 97.9%.
Molecule `CN1Cc2sccc2C(c2ccc(O)c(O)c2)C1` (stereo not drawn) [SKF 89145 hydrobromide] has a remaining activity at 1.25 µM ([1]; Well no.=1218) of 92.6% and a remaining activity at 3.75 µM ([2]; Well no.=1218) of 98.3%.
